# Experimental data as given in patent US4672036A, “Pure cultures of Kibdelsporangium aridum Shearer gen. nov., sp. nov. ATCC 39323 and mutants thereof” (SmithKline Beckman Corporation, priority 1985, dated 1987).
# “And” between values parts separate entries of the source, which are not always exact repeats. Identical values can stand only once.
# Legend:
# rumen in vitro model [1] = experiment: rumen in vitro model (growth promotant activity); set-up: species or system steer; further: test concentration or dose not given here
# C. perfringens MCP-2 = details: Table D, Anaerobes
# [2] = system: Kleb. pneumoniae 4200 (SK & F 798); assay type: cell-based; details: Table A
# Swine in vitro model = experiment: swine in vitro model (growth promotant activity)
# [3] = system: Bacteroides fragilis ATCC 25285; assay type: cell-based; details: Table D, Anaerobes
# [4] = system: E. coli 12140 (SK & F 809); assay type: cell-based; details: Table A
# [5] = system: Fusobacterium nucleatum ATCC 25586; assay type: cell-based; details: Table D, Anaerobes
# [6] = system: Proteus mirabilis SK & F 444; assay type: cell-based; details: Table A
# [7] = system: Clostridium perfringens MCP-1; details: Table D, Anaerobes
# Strep. faecilis HH34358 = assay type: cell-based; details: Table A
# [8] = system: Staph. aureus SK & F 2613; assay type: cell-based; details: Table B, Methicillin Sensitive
# [9] = system: Proteus morgani SK & F 179; assay type: cell-based; details: Table A
# [10] = system: Pseudomonas aeruginosa HH63; assay type: cell-based; details: Table A
# [11] = system: B. thetaiotamicron SK & F 3089; assay type: cell-based; details: Table D, Anaerobes
# B. fragilis SK & F 3060 = assay type: cell-based, Bacteroides fragilis; details: Table D, Anaerobes
# [12] = system: Serratia marcesens ATCC 13880; assay type: cell-based; details: Table A
# Providencia SK & F 276 = assay type: cell-based; details: Table A
# B. fragilis H145 = assay type: cell-based, Bacteroides fragilis; details: Table D, Anaerobes
# [13] = system: C. perfringens ATCC 19408; details: Table D, Anaerobes
# solubility = assay type: physicochemical
# [14] = system: Listeria monocytogenes SK & F 2255; assay type: cell-based; details: Table A
# rumen in vitro model [15] = experiment: rumen in vitro model (growth promotant activity); set-up: species or system steer; remark: listed apart in the source; further: test concentration or dose not given here
# Experimental: The protocol for the rumen in vitro model is analogous to the protocol for the swine in vitro model with the following modifications:
# (1) A 400 kg steer is surgically prepared with a rumen cannula.
# (2) The animal is fed one time a day with the following ration:
# (3) Manipulation of VFA production is described as the production ratio of propionate as a percentage of total VFA produced.
# (4) Sampling of the material, via the cannula, is at 120 minutes post feeding.
# [16] = system: Enterobacter cloacae HH31254; assay type: cell-based; details: Table A
# B. loeochii SK & F 3087 = assay type: cell-based; details: Table D, Anaerobes
# [17] = system: Salmonella gallinarum BC595; details: Table A
structure (smiles),measurement,setting,value
CN[C@H]1C(=O)N[C@H]2C(=O)N[C@H](C(=O)N[C@H]3C(=O)N[C@H]4C(=O)N[C@H](C(=O)N[C@H](C(=O)O)c5cc(O)cc(O[C@H]6O[C@H](CO)[C@@H](O)[C@H](O)[C@@H]6O)c5-c5cc4ccc5O)[C@H](O)c4cc(Cl)c(c(Cl)c4)Oc4cc3cc(c4O[C@@H]3O[C@H](C(=O)O)[C@@H](O)[C@H](O)[C@H]3NC(=O)CCCCCCCC(C)C)Oc3ccc(cc3Cl)[C@H]2O)c2cc(cc(O)c2Cl)Oc2cc1ccc2O [AAD 216B],LYS (lysine),rumen in vitro model [1],124 % Control and 107 % Control and 103 % Control
same,MIC,C. perfringens MCP-2,0.125 µg/mL
same,MIC,[2],> 100 µg/mL
same,GLU (glucose),Swine in vitro model,190 % Control and 184 % Control and 97 % Control
same,LYS (lysine),Swine in vitro model,50 % Control and 55 % Control
same,MIC,[3],32 µg/mL
same,MIC,[4],> 100 µg/mL
same,MIC,[5],32 µg/mL
same,MIC,[6],> 100 µg/mL
same,MIC,[7],0.125 µg/mL
same,MIC,Strep. faecilis HH34358,0.4 µg/mL
same,MIC,[8],1.6 µg/mL
same,MIC,[9],> 100 µg/mL
same,MIC,[10],> 100 µg/mL
same,MIC,[11],32 µg/mL
same,MIC,B. fragilis SK & F 3060,16 µg/mL
same,MIC,[12],> 100 µg/mL
same,MIC,Providencia SK & F 276,> 100 µg/mL
same,MIC,B. fragilis H145,16 µg/mL
same,MIC,[13],0.125 µg/mL
same,solubility,"solubility; H2O, methanol, dimethylsulfoxide, dimethylformamide",soluble
same,solubility,"solubility; ethanol, acetonitrile, acetone, diethylether, aliphatic hydrocarbons",insoluble
same,MIC,[14],0.4 µg/mL
same,VFA (total of volatile fatty acids),rumen in vitro model [15],111 % Control and 121 % Control
same,MIC,[16],> 100 µg/mL
same,MIC,B. loeochii SK & F 3087,16 µg/mL
same,MIC,[17],> 100 µg/mL
